Reference: the supplement of paper PMC11208160

Test: recombinant barcode read abundance after kanamycin selection (control-corrected) (log10(CPM+1)); higher = more efficient recombination; sequences stand for … in AGTGCAGAGAAAATCGGCCAGTTTTCTCTGCCTGCAGTCCGCATGCCGT…ATTTATGCAGCGGACTGCCTTTCTCCCAAAGTGATAAACCGGACAGTATCATGGACCGGTTTTCCCGGTAATCCGTATTTGCAAGGTTGGTTTCACT; site = the 11-nt target
How it was run: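 Recombination efficiency comes from barcode counts at recombinant junctions, converted to counts per million, averaged and corrected against the control. Values appear as log10(CPM+1). They were obtained from a pooled E. coli screen in which each oligo paired a target with an IS621 bridge RNA target-binding loop, and cells were plated in duplicate on chloramphenicol/ampicillin LB agar or on chloramphenicol/ampicillin/kanamycin with 0.1 mM IPTG.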

Row | Sequence | recombinant barcode read abundance (log10)
1 | GGGCGTGGATGGGTTCTAACCTGTTGCCTAG [GGGCGTGCTAG_LTGcore_GA_RTGcore_CT] (site GGGCGTGCTAG) (LTG core: GA, RTG core: CT) | 0.0898
2 | GGGCGTGGCTGGGTTCTAACCTGTTGCCTAG [GGGCGTGCTAG_LTGcore_GC_RTGcore_CT] (site GGGCGTGCTAG) (LTG core: GC, RTG core: CT) | 0.276
3 | GGGCGTGTTTGGGTTCTAACCTGTTGCCTAG [GGGCGTGCTAG_LTGcore_TT_RTGcore_CT] (site GGGCGTGCTAG) (LTG core: TT, RTG core: CT) | 0.0908
4 | GGTGCCCAATGGGTTCTAACCTGTTGCCGAG [GGTGCCCCTCG_LTGcore_AA_RTGcore_CT] (site GGTGCCCCTCG) (LTG core: AA, RTG core: CT) | 0.135
5 | GGTGCCCACTGGGTTCTAACCTGTTGCCGGT [GGTGCCCCTCG_LTGcore_AC_RTGcore_AC] (site GGTGCCCCTCG) (LTG core: AC, RTG core: AC) | 0.066
6 | GGTGCCCAGTGGGTTCTAACCTGTTGCCGCT [GGTGCCCCTCG_LTGcore_AG_RTGcore_AG] (site GGTGCCCCTCG) (LTG core: AG, RTG core: AG) | 0.102
7 | GGTGCCCCTTGGGTTCTAACCTGTTGCCGAT [GGTGCCCCTCG_LTGcore_CT_RTGcore_AT] (site GGTGCCCCTCG) (LTG core: CT, RTG core: AT) | 0.19
8 | GGTGCCCCTTGGGTTCTAACCTGTTGCCGCC [GGTGCCCCTCG_LTGcore_CT_RTGcore_GG] (site GGTGCCCCTCG) (LTG core: CT, RTG core: GG) | 0.0795
9 | GGTGCCCCTTGGGTTCTAACCTGTTGCCGCG [GGTGCCCCTCG_LTGcore_CT_RTGcore_CG] (site GGTGCCCCTCG) (LTG core: CT, RTG core: CG) | 0.222
10 | GGTGCCCCTTGGGTTCTAACCTGTTGCCGCT [GGTGCCCCTCG_LTGcore_CT_RTGcore_AG] (site GGTGCCCCTCG) (LTG core: CT, RTG core: AG) | 0.0402
11 | GGTGCCCCTTGGGTTCTAACCTGTTGCCGGC [GGTGCCCCTCG_LTGcore_CT_RTGcore_GC] (site GGTGCCCCTCG) (LTG core: CT, RTG core: GC) | 0.83
12 | GGTGCCCCTTGGGTTCTAACCTGTTGCCGGT [GGTGCCCCTCG_LTGcore_CT_RTGcore_AC] (site GGTGCCCCTCG) (LTG core: CT, RTG core: AC) | 0.0162
13 | GGTGCCCGGTGGGTTCTAACCTGTTGCCGCC [GGTGCCCCTCG_LTGcore_GG_RTGcore_GG] (site GGTGCCCCTCG) (LTG core: GG, RTG core: GG) | 0.0147
14 | GGTGCCCGTTGGGTTCTAACCTGTTGCCGAG [GGTGCCCCTCG_LTGcore_GT_RTGcore_CT] (site GGTGCCCCTCG) (LTG core: GT, RTG core: CT) | 0.0597
15 | GGTGCCCTTTGGGTTCTAACCTGTTGCCGAA [GGTGCCCCTCG_LTGcore_TT_RTGcore_TT] (site GGTGCCCCTCG) (LTG core: TT, RTG core: TT) | 0.622
16 | GTCGCCCAATGGGTTCTAACCTGTTGCTAAG [GTCGCCCCTTA_LTGcore_AA_RTGcore_CT] (site GTCGCCCCTTA) (LTG core: AA, RTG core: CT) | 0.688
17 | GTCGCCCACTGGGTTCTAACCTGTTGCTAAG [GTCGCCCCTTA_LTGcore_AC_RTGcore_CT] (site GTCGCCCCTTA) (LTG core: AC, RTG core: CT) | 0.309

Row | Sequence | recombinant barcode read abundance (log10)
18 | GTCGCCCCATGGGTTCTAACCTGTTGCTAAG [GTCGCCCCTTA_LTGcore_CA_RTGcore_CT] (site GTCGCCCCTTA) (LTG core: CA, RTG core: CT) | 2.04
19 | GTCGCCCCCTGGGTTCTAACCTGTTGCTAAG [GTCGCCCCTTA_LTGcore_CC_RTGcore_CT] (site GTCGCCCCTTA) (LTG core: CC, RTG core: CT) | 0.771
20 | GTCGCCCCTTGGGTTCTAACCTGTTGCTAAT [GTCGCCCCTTA_LTGcore_CT_RTGcore_AT] (site GTCGCCCCTTA) (LTG core: CT, RTG core: AT) | 0.474
21 | GTCGCCCCTTGGGTTCTAACCTGTTGCTACG [GTCGCCCCTTA_LTGcore_CT_RTGcore_CG] (site GTCGCCCCTTA) (LTG core: CT, RTG core: CG) | 0.323
22 | GTCGCCCCTTGGGTTCTAACCTGTTGCTAGA [GTCGCCCCTTA_LTGcore_CT_RTGcore_TC] (site GTCGCCCCTTA) (LTG core: CT, RTG core: TC) | 0.304
23 | GTCGCCCGCTGGGTTCTAACCTGTTGCTAGC [GTCGCCCCTTA_LTGcore_GC_RTGcore_GC] (site GTCGCCCCTTA) (LTG core: GC, RTG core: GC) | 0.459
24 | GTCGCCCTCTGGGTTCTAACCTGTTGCTAAG [GTCGCCCCTTA_LTGcore_TC_RTGcore_CT] (site GTCGCCCCTTA) (LTG core: TC, RTG core: CT) | 0
25 | TAAGAATACTGGGTTCTAACCTGTTGCCTGT [TAAGAATCTAG_LTGcore_AC_RTGcore_AC] (site TAAGAATCTAG) (LTG core: AC, RTG core: AC) | 0.0208
26 | TAAGAATCATGGGTTCTAACCTGTTGCCTAG [TAAGAATCTAG_LTGcore_CA_RTGcore_CT] (site TAAGAATCTAG) (LTG core: CA, RTG core: CT) | 0.838
27 | TAAGAATCTTGGGTTCTAACCTGTTGCCTAC [TAAGAATCTAG_LTGcore_CT_RTGcore_GT] (site TAAGAATCTAG) (LTG core: CT, RTG core: GT) | 0.116
28 | TAAGAATCTTGGGTTCTAACCTGTTGCCTCA [TAAGAATCTAG_LTGcore_CT_RTGcore_TG] (site TAAGAATCTAG) (LTG core: CT, RTG core: TG) | 0.343
29 | TAAGAATCTTGGGTTCTAACCTGTTGCCTCC [TAAGAATCTAG_LTGcore_CT_RTGcore_GG] (site TAAGAATCTAG) (LTG core: CT, RTG core: GG) | 0.142
30 | TAAGAATCTTGGGTTCTAACCTGTTGCCTGT [TAAGAATCTAG_LTGcore_CT_RTGcore_AC] (site TAAGAATCTAG) (LTG core: CT, RTG core: AC) | 0.0874
31 | TAAGAATGATGGGTTCTAACCTGTTGCCTAG [TAAGAATCTAG_LTGcore_GA_RTGcore_CT] (site TAAGAATCTAG) (LTG core: GA, RTG core: CT) | 0.0742
32 | TAAGAATGCTGGGTTCTAACCTGTTGCCTGC [TAAGAATCTAG_LTGcore_GC_RTGcore_GC] (site TAAGAATCTAG) (LTG core: GC, RTG core: GC) | 0.0564
33 | TAAGAATGGTGGGTTCTAACCTGTTGCCTCC [TAAGAATCTAG_LTGcore_GG_RTGcore_GG] (site TAAGAATCTAG) (LTG core: GG, RTG core: GG) | 0.113
34 | TAAGAATTCTGGGTTCTAACCTGTTGCCTGA [TAAGAATCTAG_LTGcore_TC_RTGcore_TC] (site TAAGAATCTAG) (LTG core: TC, RTG core: TC) | 0.0111
